From PubChem BioAssay AID248 (DTP/NCI, 2004)
Inconclusive results and toxic doses are left out.

Tested on: L1210 leukemia ip in BDF1 mice, survival T/C
Test: NCI In Vivo Anticancer Drug Screen. Data for tumor model L1210 Leukemia (intraperitoneal) in B6D2F1 (BDF1) mice
Conditions: endpoint: mean survival time, higher = longer survival
Method in brief: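 Value reflects the ratio of survival in compound-treated mice to survival in vehicle-treated controls, with both groups carrying the same transplanted tumor.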

[1] = dose: 50.0 mg/kg/injection, schedule: Q04DX002 (ip), vehicle: Klucel (hydroxypropylcellulose) (HPC)
[2] = dose: 100.0 mg/kg/injection, schedule: Q04DX002 (ip), vehicle: Klucel (hydroxypropylcellulose) (HPC)
[3] = dose: 100.0 mg/kg/injection, schedule: Q04DX003 (ip), vehicle: saline
[4] = dose: 200.0 mg/kg/injection, schedule: Q04DX003 (ip), vehicle: saline
[5] = dose: 50.0 mg/kg/injection, schedule: Q01DX001 (ip), vehicle: saline
[6] = dose: 50.0 mg/kg/injection, schedule: Q01DX009 (ip), vehicle: saline
[7] = dose: 100.0 mg/kg/injection, schedule: Q01DX001 (ip), vehicle: saline
[8] = dose: 200.0 mg/kg/injection, schedule: Q01DX001 (ip), vehicle: saline

In the case of `CCOC(=O)/C(C#N)=C/c1cccn1Cc1cc(OC)c(OC)cc1[N+](=O)[O-]`, the T/C (dose: 25.0 mg/kg/injection, schedule: Q04DX002 (ip), vehicle: Klucel (hydroxypropylcellulose) (HPC)) is reported as 110 % of control, the T/C [1] is reported as 89 % of control and the T/C [2] is reported as 96 % of control.

With `O=C(O)c1ccc(SSc2ccc(C(=O)O)cn2)nc1` the T/C [3] was 102 % of control, the T/C [4] was 101 % of control and the T/C (dose: 400.0 mg/kg/injection, schedule: Q04DX003 (ip), vehicle: saline) was 104 % of control.

For `O=S1(=O)CCCCC1C(O)(c1ccccc1)c1ccccc1` (stereo not drawn), the T/C (dose: 12.5 mg/kg/injection, schedule: Q04DX002 (ip), vehicle: saline with Tween-80) was 97 % of control, the T/C (dose: 25.0 mg/kg/injection, schedule: Q04DX002 (ip), vehicle: saline with Tween-80) was 102 % of control and the T/C (dose: 50.0 mg/kg/injection, schedule: Q04DX002 (ip), vehicle: saline with Tween-80) was 94 % of control.

`S=C([S][Sb]([c]1ccccc1)[c]1ccccc1)N(c1ccccc1)c1ccccc1` was tested, and the T/C (dose: 5.0 mg/kg/injection, schedule: Q01DX001 (ip), vehicle: other) was 102 % of control, the T/C (dose: 10.0 mg/kg/injection, schedule: Q01DX001 (ip), vehicle: other) was 102 % of control and the T/C (dose: 20.0 mg/kg/injection, schedule: Q01DX001 (ip), vehicle: other) was 98 % of control. The T/C (dose: 40.0 mg/kg/injection, schedule: Q01DX001 (ip), vehicle: other) was 107 % of control.

With `CCOC(=O)c1c(OC)cc2n(c1=O)Cc1cc3ccccc3nc1-2` the T/C (dose: 150.0 mg/kg/injection, schedule: Q01DX009 (ip), vehicle: saline with Tween-80) was 86 % of control, the T/C (dose: 225.0 mg/kg/injection, schedule: Q01DX009 (ip), vehicle: saline with Tween-80) was 89 % of control and the T/C (dose: 335.0 mg/kg/injection, schedule: Q01DX009 (ip), vehicle: saline with Tween-80) was 89 % of control.

In the case of `OC1CCCCC1Cc1ccccc1` (stereo not drawn), the T/C (dose: 100.0 mg/kg/injection, schedule: Q04DX003 (ip), vehicle: gum acacia) is reported as 102 % of control, the T/C (dose: 200.0 mg/kg/injection, schedule: Q04DX003 (ip), vehicle: gum acacia) is reported as 96 % of control and the T/C (dose: 400.0 mg/kg/injection, schedule: Q04DX003 (ip), vehicle: gum acacia) is reported as 98 % of control.

With `CCCCN(C)c1ncnc2[nH]ncc12` the T/C [5] was 104 % of control, the T/C [6] was 116 % of control and the T/C (dose: 50.0 mg/kg/injection, schedule: Q04DX003 (ip), vehicle: saline) was 106 % of control. For the same compound, the T/C [7] was 106 % of control, the T/C [3] was 110 % of control and the T/C [8] was 104 % of control. The T/C [4] was 100 % of control.

With `O=C(COc1cccc(Cl)c1)Nc1cccc(NC(=O)c2cccc(S(=O)(=O)F)c2)c1` the T/C (dose: 100.0 mg/kg/injection, schedule: Q01DX001 (ip), vehicle: carboxymethylcellulose (CMC)) was 88 % of control, the T/C (dose: 200.0 mg/kg/injection, schedule: Q01DX001 (ip), vehicle: carboxymethylcellulose (CMC)) was 88 % of control and the T/C (dose: 400.0 mg/kg/injection, schedule: Q01DX001 (ip), vehicle: carboxymethylcellulose (CMC)) was 97 % of control.

`OCn1cnc2c(SC3CCCC3)ncnc21` was tested, and the T/C (dose: 35.0 mg/kg/injection, schedule: Q01DX015 (ip), vehicle: saline) was 114 % of control, the T/C [6] was 112 % of control and the T/C (dose: 50.0 mg/kg/injection, schedule: Q01DX015 (ip), vehicle: saline) was 123 % of control. The T/C (dose: 80.0 mg/kg/injection, schedule: Q01DX009 (ip), vehicle: saline) was 119 % of control, the T/C (dose: 88.0 mg/kg/injection, schedule: Q01DX009 (ip), vehicle: Klucel (hydroxypropylcellulose) (HPC)) was 154 % of control and the T/C [7] was 88 % of control. For the same compound, the T/C (dose: 120.0 mg/kg/injection, schedule: Q01DX015 (ip), vehicle: saline) was 153 % of control, the T/C (dose: 180.0 mg/kg/injection, schedule: Q01DX009 (ip), vehicle: other) was 152 % of control and the T/C (dose: 180.0 mg/kg/injection, schedule: Q01DX015 (ip), vehicle: saline) was 161 % of control. The T/C [8] was 104 % of control, the T/C (dose: 200.0 mg/kg/injection, schedule: Q01DX009 (ip), vehicle: Klucel (hydroxypropylcellulose) (HPC)) was 92 % of control and the T/C (dose: 270.0 mg/kg/injection, schedule: Q01DX015 (ip), vehicle: saline) was 113 % of control. The T/C (dose: 400.0 mg/kg/injection, schedule: Q01DX001 (ip), vehicle: saline) was 111 % of control.

With `Cc1ccnc(N=Cc2ccccc2)c1` the T/C [5] was 89 % of control and the T/C [7] was 101 % of control.

In the case of `O=[N+]([O-])c1ccc(Nc2ccccc2)c([N+](=O)[O-])c1`, the T/C [1] is reported as 103 % of control and the T/C [2] is reported as 92 % of control.

For `CCCCCC(C[N+](C)(C)C)C(=O)/C=C/c1ccc(Cl)cc1` (stereo not drawn), the T/C (dose: 100.0 mg/kg/injection, schedule: Q04DX003 (ip), vehicle: Klucel (hydroxypropylcellulose) (HPC)) was 96 % of control and the T/C (dose: 200.0 mg/kg/injection, schedule: Q04DX003 (ip), vehicle: Klucel (hydroxypropylcellulose) (HPC)) was 106 % of control.
